Reference: US11040034B2 (priority 2016, dated 2021)
Read-outs that look alike come from different tables or passages of the source.

Experiments:
[1] = cynomolgus monkey liver microsomes
[2] = rat liver microsomes

CCS(=O)(=O)NCc1cc(-c2nc3cc(F)c(F)cc3n2C2CC2)cnn1 [Example 52, N-((5-(1-Cyclopropyl-5,6-difluoro-1H-benzo[d]imidazol-2-yl)pyridazin-3-yl)methyl)ethanesulfonamide]
metabolic stability in comparison to comparison example [1]: greater metabolic stability | metabolic stability in comparison to comparison example [2]: greater metabolic stability
